The subject of assay [1] is A549 (lung adenocarcinoma). In words: Cytotoxic activity assay (MTT). Particulars: for IC50: Homo sapiens, A549, 48 h exposure, MTT, read-out: Cell lines, IC50 (μM) A549; for Selectivity Index (SI) values A549: SI = IC50 normal cell (MRC-5)/ IC50 cancer cell. Format: cell-based, human. The essentials: (§1)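 MTT readout, A550 (ref 650 nm) after DMSO solubilisation; cells 5000–20,000/well, 24 h pre-growth, 48 h compound exposure, 37 °C/5% CO2. MTT incubation 2.5–4 h.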

The subject of assay [2] is HeLa (cervical carcinoma). Description: Cytotoxic activity assay (MTT). The class given is cell-based, human. To be noted: for IC50: Homo sapiens, 48 h exposure, MTT, read-out: Cell lines, IC50 (μM) HeLa; for Selectivity Index (SI) values HeLa: SI = IC50 normal cell (MRC-5)/ IC50 cancer cell. The essentials: as §1
In assay [3] the test system is H69AR (multidrug-resistant small cell lung carcinoma). In words: Cytotoxic activity assay (MTT). The class given is cell-based, human. Particulars: for IC50: Homo sapiens, H69AR, 48 h exposure, MTT, read-out: Cell lines, IC50 (μM) H69AR; for Selectivity Index (SI) values H69AR: SI = IC50 normal cell (MRC-5)/ IC50 cancer cell. The essentials: as §1
Assay [4] has as its system MDA-MB-231 (triple-negative breast cancer). In words: Cytotoxic activity assay (MTT). Format: cell-based, human. To be noted: for IC50: Homo sapiens, MDA-MB-231, 48 h exposure, MTT, read-out: Cell lines, IC50 (μM) MDA-MB-231; for Selectivity Index (SI) values MDA-MB-231: SI = IC50 normal cell (MRC-5)/ IC50 cancer cell. The essentials:
as §1

Assay [5] has as its system T-47D (hormone-dependent breast cancer). Description: Cytotoxic activity assay (MTT). Format: cell-based, human. To be noted: for IC50: Homo sapiens, T47D, 48 h exposure, MTT, read-out: Cell lines, IC50 (μM) T47-D; for Selectivity Index (SI) values T47-D: SI = IC50 normal cell (MRC-5)/ IC50 cancer cell. The essentials:
as §1

Assay [6] has as its system HepG2 (hepatocellular carcinoma). Description: Cytotoxic activity assay (MTT). The class given is cell-based, human. To be noted: for IC50: Homo sapiens, HepG2, 48 h exposure, MTT, read-out: Cell lines, IC50 (μM) HepG2; for Selectivity Index (SI) values HepG2: SI = IC50 normal cell (MRC-5)/ IC50 cancer cell. The essentials: as §1
Assay [7] relates to HuCCA-1 (cholangiocarcinoma derived from a patient). In words: Cytotoxic activity assay (MTT). To be noted: for IC50: Homo sapiens, HuCC-A1, 48 h exposure, MTT, read-out: Cell lines, IC50 (μM) HuCCA-1; for Selectivity Index (SI) values HuCCA-1: SI = IC50 normal cell (MRC-5)/ IC50 cancer cell. Format: cell-based, human. The essentials: as §1
Assay [8] concerns HL-60 (acute promyelocytic leukemia). Description: Cytotoxic activity assay (XTT). Format: cell-based, human. Particulars: for IC50: Homo sapiens, HL-60, 48 h exposure, XTT, read-out: Cell lines, IC50 (μM) HL-60; for Selectivity Index (SI) values HL-60: SI = IC50 normal cell (MRC-5)/ IC50 cancer cell. The essentials:
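Cytotoxicity against the suspended leukemia line HL-60 was measured with the XTT method, using doxorubicin and etoposide as positive controls. Cells (5000–20,000 per well, 75 µL) were allowed 30 min at 37 °C with 5% CO2 and were then treated with compound in an equal volume of medium for 48 h. After 4 h with 75 µL XTT reagent, plates were read at 492 nm with a 690 nm reference. MRC-5 normal lung fibroblasts served as the normal-cell comparison.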
A general note: Tetrazolium assays rely on reduction of a dye to a coloured formazan, in cell work by metabolically active cells.

Assay [9] relates to MOLT-3 (T cell acute lymphoblastic leukemia). Description: Cytotoxic activity assay (XTT). Format: cell-based, human. To be noted: for IC50: Homo sapiens, MOLT-3, 48 h exposure, XTT, read-out: Cell lines, IC50 (μM) MOLT-3; for Selectivity Index (SI) values MOLT-3: SI = IC50 normal cell (MRC-5)/ IC50 cancer cell.
In assay [10] the test system is MRC-5 normal embryonic lung fibroblast cell line. Description: Cytotoxic activity assay (MTT), normal cells. The class given is cell-based. To be noted: Homo sapiens, MRC5, 48 h exposure, read-out: Cell lines, IC50 (μM) MRC-5. The essentials:
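Seeding: 5000–20,000 cells/well, 24 h at 37 °C, 95% humidity, 5% CO2. Treatment: equal volume of medium with compound, 48 h. Detection: MTT 2.5–4 h, DMSO solubilisation, A550 minus A650.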

Take `C=C1CC[C@H]2C(C)(C)CCC[C@]2(C)[C@H]1CC/C(C)=C/C(=O)N(C)C` [Compound 4m, (E)-N,N,3-Trimethyl-5-((1S,4aS,8aS)-5,5,8a-trimethyl-2-methylenedecahydro-naphthalen-1-yl)pent-2-enamide]: in assay [1], the IC50 (usually the midpoint of a concentration-inhibition curve) worked out at 51.82 ± 0.25 µM and the “Selectivity Index (SI) values A549” value is 0.8. Moreover, in assay [2], the IC50 is 40.1 ± 0.68 µM and the “Selectivity Index (SI) values HeLa” value turned out to be 1.0. For the same molecule, in assay [3], the IC50 was determined as 99.97 ± 0.74 µM and the “Selectivity Index (SI) values H69AR” value is recorded as 0.4. For the same molecule, in assay [4], the IC50 amounted to 32.1 ± 1.68 µM and the “Selectivity Index (SI) values MDA-MB-231” value was found to be 1.3. In assay [5], the IC50 is 42.6 ± 1.08 µM and the “Selectivity Index (SI) values T47-D” value worked out at 1.0. In assay [6], the IC50 turned out to be 52.1 ± 2.82 µM and the “Selectivity Index (SI) values HepG2” value was found to be 0.8. Also, in [7], the half-maximal inhibitory concentration (IC50) worked out at 44.31 ± 0.42 µM and the “Selectivity Index (SI) values HuCCA-1” value is recorded as 0.9. In [8], the IC50 turned out to be 19.4 ± 0.84 µM and the “Selectivity Index (SI) values HL-60” value is listed as 2.1. In assay [9], the IC50 amounted to 21.3 ± 0.47 µM and the “Selectivity Index (SI) values MOLT-3” value is recorded as 1.9. The IC50 in assay [10] came to 40.8 ± 0.56 µM.

For `C=C1CC[C@H]2C(C)(C)CCC[C@]2(C)[C@H]1CC/C(C)=C/C(=O)N1CCCCC1` [Compound 4n, (E)-3-Methyl-1-(piperidin-1-yl)-5-((1S,4aS,8aS)-5,5,8a-trimethyl-2-methylenedecahydronaphthalen-1-yl)pent-2-en-1-one], in assay [1], the half-maximal inhibitory concentration (IC50) is 41.7 ± 1.43 µM and the “Selectivity Index (SI) values A549” value was 0.9. In [2], the half-inhibitory concentration (IC50) worked out at 38.91 ± 0.13 µM and the “Selectivity Index (SI) values HeLa” value is reported as 1.0. For the same molecule, in assay [3], the IC50 stood at 52.31 ± 0.42 µM and the “Selectivity Index (SI) values H69AR” value stood at 0.7. Moreover, in assay [4], the IC50 came out at 33.9 ± 1.93 µM and the “Selectivity Index (SI) values MDA-MB-231” value turned out to be 1.1. Further, in assay [5], the IC50 is 73 ± 3.31 µM and the “Selectivity Index (SI) values T47-D” value is listed as 0.5. Also, in assay [6], the IC50 worked out at 32.2 ± 1.37 µM and the “Selectivity Index (SI) values HepG2” value was found to be 1.2. In [7], the IC50 was 41.25 ± 0.19 µM and the “Selectivity Index (SI) values HuCCA-1” value came out at 0.9. For the same molecule, in assay [8], the IC50 worked out at 20.5 ± 0.5 µM and the “Selectivity Index (SI) values HL-60” value was 1.9. In assay [9], the IC50 worked out at 21 ± 0.32 µM and the “Selectivity Index (SI) values MOLT-3” value is 1.8. Also, in [10], the IC50 was 38.4 ± 1.2 µM.

Take `C=C1CC[C@H]2C(C)(C)CCC[C@]2(C)[C@H]1CC/C(C)=C/C(=O)N(C)OC` [Compound 4o, (E)-N-Methoxy-N,3-dimethyl-5-((1S,4aS,8aS)-5,5,8a-trimethyl-2-methylene-decahydronaphthalen-1-yl)pent-2-enamide]: in assay [1], the IC50 came to 82.4 ± 0.99 µM and the “Selectivity Index (SI) values A549” value was 0.6. Besides, in assay [2], the IC50 came out at 52.86 ± 0.02 µM and the “Selectivity Index (SI) values HeLa” value was 0.9. Also, in assay [3], the IC50 was found to be 115.1 ± 0.64 µM and the “Selectivity Index (SI) values H69AR” value turned out to be 0.4. In addition, in assay [4], the IC50 is 38.8 ± 0.44 µM and the “Selectivity Index (SI) values MDA-MB-231” value came to 1.2. For the same molecule, in assay [5], the IC50 is 46.4 ± 1.73 µM and the “Selectivity Index (SI) values T47-D” value was 1.0. In assay [6], the IC50 was 57.3 ± 1.82 µM and the “Selectivity Index (SI) values HepG2” value is listed as 0.8. For the same molecule, in assay [7], the IC50 came out at 54.3 ± 1.18 µM and the “Selectivity Index (SI) values HuCCA-1” value came to 0.9. In assay [8], the IC50 was determined as 27.9 ± 1.99 µM and the “Selectivity Index (SI) values HL-60” value turned out to be 1.7. Further, in [9], the IC50 was 29.8 ± 1.89 µM and the “Selectivity Index (SI) values MOLT-3” value is given as 1.6. The IC50 in assay [10] is 47.2 ± 0.96 µM.

Values taken from PMC10439230 (Scientific Reports, 2023).
